Literature values in patent publication US6080725A, “Immunostimulating and vaccine compositions employing saponin analog adjuvants and uses thereof” (priority 1999, dated 2000).
Where two headings read alike, the source gives them in different places.

Test system: lymphoproliferative test

CC(=O)O[C@@H]1[C@H](O[C@@H]2O[C@@H](CO)[C@H](O)[C@H]2O)[C@@H](O[C@@H]2O[C@@H](C)[C@H](O[C@@H]3OC[C@@H](O)[C@H](O)[C@H]3O)[C@@H](O)[C@H]2O)[C@H](OC(=O)[C@]23CCC(C)(C)C[C@H]2C2=CC[C@@H]4[C@@]5(C)CC[C@H](O[C@@H]6O[C@H](C(=O)O)[C@@H](O)[C@H](O[C@@H]7OC[C@@H](O)[C@H](O)[C@H]7O)[C@H]6O[C@@H]6O[C@H](CO)[C@H](O)[C@H](O)[C@H]6O)[C@@](C)(C=O)[C@H]5CC[C@@]4(C)[C@]2(C)CC3)O[C@@H]1C [squarroside A]
immunomodulating effect, lymphoproliferative test (concentrations in the pg range): stimulant effect | immunomodulating effect, lymphoproliferative test (concentrations in the μg range): suppressive effect | immunomodulating activity, lymphoproliferative test (dose-dependent): immunomodulating activity
